Molecules are shown by their SMILES.

What all share (assay type): in vivo
In assay [1] the test system is ryegrass, Italian (Italian ryegrass, Lolium multiflorum). Briefly: Test A preemergence. The conditions noted are these: Lolium multiflorum, pre-emergence, 240 h, preemergence, read-out: Plant response rating, Ryegrass, Italian; for pest or weed control at 125 g/ha: 125 g ai/ha, visual rating after approx. 10 d, 0 to 100 scale where 0 is no effect and 100 is complete control; for pest or weed control at 500 g/ha: 500 g ai/ha, 0 to 100 scale, 0 = no effect, 100 = complete control. In outline:
(§1)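 Seeded soil received test chemicals as a preemergence directed spray, and seedlings at one to two leaves, 2–10 cm tall, received them postemergence, in a non-phytotoxic, surfactant-containing solvent mixture. Pots were held in a greenhouse for approximately 10 d, then rated for injury from 0, no effect, to 100, complete control.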

Assay [2] relates to Galium (catchweed bedstraw, Galium aparine). Briefly: Test A postemergence. The conditions noted are these: Galium, post-emergence, 240 h, 125 g ai/ha, postemergence; visual injury after approximately 10 d; 0 to 100 scale (0 no effect, 100 complete control); read-out: Plant response rating, Galium. In outline: as §1
Assay [3] deals with Kochia (Kochia scoparia). The experiment in a line: Test A postemergence. The following applies: Bassia scoparia, post-emergence, 240 h, 125 g ai/ha, postemergence; visual injury after approximately 10 d; 0 to 100 scale (0 no effect, 100 complete control); read-out: Plant response rating, Kochia. In outline: as §1
Assay [4] relates to barnyardgrass (Echinochloa crus-galli). The experiment in a line: Test A postemergence. The conditions noted are these: Echinochloa crus-galli, post-emergence, 240 h, 125 g ai/ha, postemergence; visual injury after approximately 10 d; 0 to 100 scale (0 no effect, 100 complete control); read-out: Plant response rating, Barnyardgrass. In outline:
as §1

Assay [5] relates to blackgrass (Alopecurus myosuroides). The experiment in a line: Test A postemergence. The following applies: Alopecurus myosuroides, post-emergence, 240 h, 125 g ai/ha, postemergence; visual injury after approximately 10 d; 0 to 100 scale (0 no effect, 100 complete control); read-out: Plant response rating, Blackgrass. In outline:
as §1

The test system of assay [6] is corn (Zea mays). The experiment in a line: Test A postemergence. The conditions noted are these: Zea mays, post-emergence, 240 h, 125 g ai/ha, postemergence; visual injury after approximately 10 d; 0 to 100 scale (0 no effect, 100 complete control). In outline:
as §1

Assay [7] concerns giant foxtail (Setaria faberii). The experiment in a line: Test A postemergence. The conditions noted are these: Setaria faberi, post-emergence, 240 h, 125 g ai/ha, postemergence; visual injury after approximately 10 d; 0 to 100 scale (0 no effect, 100 complete control); read-out: Plant response rating, Foxtail, Giant. In outline: as §1
Assay [8] relates to pigweed (Amaranthus retroflexus). The experiment in a line: Test A postemergence. The conditions noted are these: Amaranthus retroflexus, post-emergence, 240 h, 125 g ai/ha, postemergence; visual injury after approximately 10 d; 0 to 100 scale (0 no effect, 100 complete control); read-out: Plant response rating, Pigweed. In outline: as §1
Assay [9] deals with ragweed (common ragweed, Ambrosia elatior). The experiment in a line: Test A postemergence. The following applies: Ambrosia artemisiifolia, post-emergence, 240 h, 125 g ai/ha, postemergence; visual injury after approximately 10 d; 0 to 100 scale (0 no effect, 100 complete control); read-out: Plant response rating, Ragweed. In outline:
as §1

In assay [10] the test system is ryegrass, Italian (Italian ryegrass, Lolium multiflorum). The experiment in a line: Test A postemergence. The following applies: Lolium multiflorum, post-emergence, 240 h, 125 g ai/ha, postemergence; visual injury after approximately 10 d; 0 to 100 scale (0 no effect, 100 complete control); read-out: Plant response rating, Ryegrass, Italian. In outline: as §1
The subject of assay [11] is wheat (Triticum aestivum). The experiment in a line: Test A postemergence. The conditions noted are these: Triticum aestivum, post-emergence, 240 h, 125 g ai/ha, postemergence; visual injury after approximately 10 d; 0 to 100 scale (0 no effect, 100 complete control); read-out: Plant response rating, Wheat. In outline: as §1
Assay [12] has as its system barnyardgrass (Echinochloa crus-galli). Briefly: Test B flooded paddy test. The following applies: Echinochloa crus-galli, Flood, 250 g ai/ha; scale of 0 to 100 where 0 is no effect and 100 is complete control; read-out: Barnyardgrass plant response rating. In outline: (§2)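 Plants at 2-leaf stage flooded to 3 cm above soil, with compounds applied directly to paddy water and that depth maintained. Plants kept in greenhouse 13–15 d. Visual rating versus controls on a 0 (no effect) to 100 (complete control) scale.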

The test system of assay [13] is ducksalad (Heteranthera limosa). Briefly: Test B flooded paddy test. The conditions noted are these: Heteranthera limosa, Flood, 250 g ai/ha; scale of 0 to 100 where 0 is no effect and 100 is complete control; read-out: Ducksalad plant response rating. In outline: as §2
In assay [14] the test system is rice (Oryra sativa). Briefly: Test B flooded paddy test. The conditions noted are these: Oryza sativa, Flood, 250 g ai/ha; scale of 0 to 100 where 0 is no effect and 100 is complete control; read-out: Rice plant response rating. In outline:
as §2

The test system of assay [15] is sedge, umbrella (small-flower umbrella sedge, Cyperus difformis). The experiment in a line: Test B flooded paddy test. The conditions noted are these: Cyperus difformis, Flood, 250 g ai/ha; scale of 0 to 100 where 0 is no effect and 100 is complete control; read-out: Sedge, Umbrella plant response rating. In outline: as §2

As for `O=C1NC[C@H](c2cccc(C(F)(F)F)c2)[C@H]1C(=O)Nc1ccccc1C1CC1` [Compound 748], the pest or weed control at 125 g/ha came to 0% in assay [1]; 0% in [2]; 0% in assay [3]; 40% in assay [4]; 0% in [5]; 0% in assay [7]. Moreover, the pest or weed control at 125 g/ha in [8], in assay [9] and in assay [10] was 0% throughout. The pest or weed control at 500 g/ha in [1] was determined as 0%. For the same molecule, the Corn plant response rating (crop injury, 0 = no effect, 100 = complete kill) at 125 g/ha in [6] was 0%. In addition, the plant injury at 125 g/ha in assay [11] came to 0%. The pest or weed control at 250 g/ha in [12] stood at 0%; in assay [13], 75%; in assay [14], 25%; in assay [15], 0%.
`O=C1NC[C@H](c2cscn2)[C@H]1C(=O)Nc1ccccc1F` [Compound 752]: the pest or weed control at 125 g/ha stood at 20% in [1]; 70% in [2]; 40% in assay [3]; 60% in assay [4]; 0% in assay [5]; 50% in assay [7]. The pest or weed control at 125 g/ha in assay [8] worked out at 0%; in assay [9] it was 20%; in assay [10], 20%. Moreover, the pest or weed control at 500 g/ha in assay [1] is 30%. For the same molecule, in assay [6], the Corn plant response rating (crop injury, 0 = no effect, 100 = complete kill) at 125 g/ha was 0%. For the same molecule, the plant injury at 125 g/ha in assay [11] was 0%. Moreover, the pest or weed control at 250 g/ha in assay [12], in assay [13], in assay [14] and in [15] was 0% throughout.
As to `O=C1NC[C@H](c2cccc3c2OC(F)(F)O3)[C@H]1C(=O)Nc1ccccc1F` [Compound 754], the pest or weed control at 125 g/ha stood at 0% in assay [1]; 0% in assay [2]; 0% in assay [3]; 60% in assay [4]; 0% in [5]; 60% in [7]. The pest or weed control at 125 g/ha in assay [8], in [9] and in assay [10] was 0% each time. Moreover, in assay [1], the pest or weed control at 500 g/ha amounted to 0%. In [6], this molecule yielded a Corn plant response rating (crop injury, 0 = no effect, 100 = complete kill) at 125 g/ha of 0%. For the same molecule, in assay [11], the plant injury at 125 g/ha came to 0%. The pest or weed control at 250 g/ha in assay [12] came to 0%; in assay [13], 40%; in [14] it was 0%; in assay [15] it was 0%.
As for `O=C1NC[C@H](c2cc(F)c(F)c(F)c2)[C@H]1C(=O)Nc1ccc(F)c(F)c1F` [Compound 756], the pest or weed control at 125 g/ha amounted to 30% in [1]; 50% in assay [2]; 20% in assay [3]; 90% in assay [4]; 0% in assay [5]; 80% in assay [7]. For the same molecule, the figures for the pest or weed control at 125 g/ha in assay [8], in [9] and in assay [10] were 0%, 20% and 40%, respectively. Further, in assay [1], the pest or weed control at 500 g/ha turned out to be 70%. The molecule also registered a Corn plant response rating (crop injury, 0 = no effect, 100 = complete kill) at 125 g/ha in assay [6] of 50%. In addition, in assay [11], the plant injury at 125 g/ha turned out to be 30%. Moreover, the pest or weed control at 250 g/ha was 50% in assay [12], 100% in assay [13], 0% in assay [14] and 0% in assay [15].
With `CN1C[C@H](c2cc(F)c(F)c(F)c2)[C@@H](C(=O)Nc2ccc(F)c(F)c2F)C1=O` [Compound 757], the pest or weed control at 125 g/ha worked out at 30% in assay [1]; 50% in [2]; 20% in assay [3]; 90% in assay [4]; 60% in assay [5]; 90% in assay [7]. Further, the pest or weed control at 125 g/ha came out at 20% in assay [8], 0% in assay [9] and 20% in assay [10]. Moreover, the pest or weed control at 500 g/ha in assay [1] turned out to be 60%. This molecule had a Corn plant response rating (crop injury, 0 = no effect, 100 = complete kill) at 125 g/ha in assay [6] of 70%. Also, the plant injury at 125 g/ha in assay [11] stood at 60%. The pest or weed control at 250 g/ha was determined as 75% in [12], 100% in assay [13], 80% in assay [14] and 0% in assay [15].
Turning to `CN1C[C@H](c2cc(F)cc(F)c2)[C@@H](C(=O)Nc2ccc(F)cc2C(F)(F)F)C1=O` [Compound 758], the pest or weed control at 125 g/ha turned out to be 30% in assay [1]; 40% in [2]; 0% in [3]; 70% in assay [4]; 0% in assay [5]; 80% in assay [7]. Also, the pest or weed control at 125 g/ha in assay [8], in [9] and in assay [10] was 0% throughout. In addition, the pest or weed control at 500 g/ha in [1] came to 70%. Further, the Corn plant response rating (crop injury, 0 = no effect, 100 = complete kill) at 125 g/ha in assay [6] is 20%. In assay [11], the plant injury at 125 g/ha is 0%. Further, the pest or weed control at 250 g/ha in assay [12] turned out to be 45%; in assay [13], 100%; in assay [14], 0%; in [15], 0%.
For the molecule `CN1C[C@H](c2cc(F)cc(F)c2)[C@@H](C(=O)Nc2c(F)cccc2F)C1=O` [Compound 759], the pest or weed control at 125 g/ha in assay [1] came to 0%; in [2], 0%; in [3] it was 0%; in assay [4], 70%; in assay [5] it was 0%; in assay [7], 20%. For the same molecule, the pest or weed control at 125 g/ha in [8], in assay [9] and in [10] was 0% throughout. This molecule returned a Corn plant response rating (crop injury, 0 = no effect, 100 = complete kill) at 125 g/ha in assay [6] of 0%. Also, in assay [11], the plant injury at 125 g/ha worked out at 0%. Besides, the pest or weed control at 250 g/ha in assay [12], in assay [13], in [14] and in assay [15] was 0% throughout.
